Tests used:
PC3 cells = experiment: Matrigel invasion assay; format: cell-based, human; settings: 6-hr pre-treatment followed by 6 hr of cell invasion
From the text: BioCoat Matrigel Invasion Chambers (modified Boyden Chamber Assay; BD Biosciences) were used according to the manufacturer's instructions.

GFP-labeled PC3 cells = experiment: Real-time imaging of cell migration; format: cell-based, human; settings: starting at 6 hr of treatment
Description: Real-time imaging of GFP-labeled PC3 cells was performed in poly-D-lysine-coated chamber cover glass slides (Lab-Tek). PC3 GFP cells were plated and allowed to adhere for 24 hr. Wells were wounded with a P200 pipette tip. The chamber slides were imaged with an IX81 Olympus wide-field fluorescence microscope equipped with a CO2- and temperature-controlled chamber and time-lapse tracking system. Images from DIC and GFP channels were taken every 2 min and processed using ImageJ and analyzed for cell migration with Manual Tracking, using local maximum centering correction to maintain a centroid xy coordinate for each cell per frame over time. Tracking data was subsequently processed with the Chemotaxis and Migration tool from ibidi to create xy coordinate plots, velocity, and distance measurements.

Pten^L/L mice = experiment: Pharmacological treatment of Pten^L/L mice (preclinical trial, prostate cancer); format: in vivo, mouse
Description: Pten^loxp/loxp and Pb-cre mice where obtained from Jackson Laboratories and Mouse Models of Human Cancers Consortium (MMHCC), respectively, and maintained in the C57BL/6 background. Mice were maintained under specific pathogen-free conditions, and experiments were performed in compliance with institutional guidelines as approved by the Institutional Animal Care and Use Committee of UCSF.
Weight measurements were taken every 3 days to monitor for toxicity. For the 28-day study, mice were imaged via […] at day 0 and day 28 in a 14-T GE MR scanner (GE Healthcare).
Whole mouse prostates were removed from wild-type and Pten^L/L mice, microdissected, and frozen in liquid nitrogen. Frozen tissues were subsequently manually disassociated using a biopulverizer (Biospec) and additionally processed for protein and mRNA analysis as described above.
Prostates and lymph nodes were dissected from mice within 2 hr of the indicated treatment and fixed in 10% formalin overnight at 4° C. Tissues were subsequently dehydrated in ethanol (Sigma) at room temperature, mounted into paraffin blocks, and sectioned at […] Specimens were de-paraffinized and rehydrated using CitriSolv (Fisher) followed by serial ethanol washes. […] Sections were washed in distilled water followed by TBS washes. The sections were then incubated in 5% goat serum, 1% BSA in TBS for 1 hr at room temperature. Various primary antibodies were used, including those specific for keratin 5 (Covance), cytokeratin 8 (Abcam and Covance), YB1 (Abcam), vimentin (Abcam), MTA1 (Cell signaling), CD44 (BD Pharmingen), and the androgen receptor (Epitomics), which were diluted 1:50-1:500 in blocking solution and incubated on sections overnight at 4° C. Specimens were then washed in TBS and incubated with the appropriate Alexa 488 and 594 labeled secondary (Invitrogen) at 1:500 for 2 hr at room temperature, with the exception of YB1 which was incubated with biotinylated anti-rabbit secondary (Vector) followed by incubation with Alexa 594 labeled Streptavidin (Invitrogen). A final set of washes in TBS was completed at room temperature followed by mounting with DAPI Hardset Mounting Medium (Vector Lab). A Zeiss Spinning Disc confocal (Zeiss, CSU-X1) was used to image the sections at 40×-100×. Individual prostate cells were quantified for mean fluorescence intensity (m.f.i.) using the Axiovision (Zeiss, Release 4.8) densitometric tool.
Mouse lymph nodes were processed as described above and stained for CK8 and androgen receptor. Lymph nodes were imaged using a Zeiss AX10 microscope. Metastases were identified and areas were measured using the Axiovision (Zeiss, Release 4.8) measurement tool.
Immunohistochemistry was performed as described above (see “Immunofluorescence”) with the exception that immediately after antigen […] and TBS washes, specimens were incubated in 3% hydrogen peroxide in TBS followed by TBS washes. The following primary antibodies were used: phospho-AKT^S473 (Cell Signaling), phospho-rpS6^S240/244 (Cell Signaling), phospho-4EBP1^T37/46 (Cell Signaling), phospho-histone H3 (Upstate), and cleaved caspase (Cell Signaling). This was followed by TBS washes and incubation with the appropriate biotinylated secondary antibody (Vector Lab) for 30 min at room temperature. An ABC-HRP Kit (Vector Lab) was used to amplify the signal, followed by a brief incubation in hydrogen peroxide. The protein of interest was detected using DAB (Sigma). Specimens were counterstained with haematoxylin (Thermo Scientific), dehydrated with Citrisolv (Fisher), and mounted with Cytoseal XYL (Vector Lab).
Paraffin-embedded prostate specimens were deparaffinized and rehydrated as described above (see “Immunofluorescence”), stained with haematoxylin (Thermo Scientific), and washed with water. This was followed by a brief incubation in differentiation RTU (VWR) and two washes with water followed by two 70% ethanol washes. […]

LNCaP and A498 cells = experiment: Apoptosis analysis (Annexin V/PI); format: cell-based, human; settings: 200 nM, 48 hours
From the text: Appropriately treated LNCaP and A498 cells were labeled with Annexin V-FITC (BD Biosciences) and propidium iodide (Sigma) following the manufacturer's instructions. PI/Annexin data was acquired using a BD FACS Caliber (BD Biosciences) and analyzed with FlowJo (v.9.1).

[1] = Pten^L/L mice, ATP site inhibitor of mTOR 1 mg/kg daily, RAD001 10 mg/kg daily

## CC(C)n1nc(-c2ccc3oc(N)nc3c2)c2c(N)ncnc21 [ATP site inhibitor of mTOR]
PC3 cells
  invasive potential of PC3 prostate cancer cells: decreased
GFP-labeled PC3 cells
  cancer cell migration: inhibited
Pten^L/L mice; Pten^L/L mice, 1 mg/kg daily, 28-day treatment, MRI
  prostate cancer volume: marked reduction
Pten^L/L mice; Pten^L/L mice, 1 mg/kg daily, 28 days
  decrease in prostatic intraepithelial neoplasia (PIN) lesions: 50%
Pten^L/L mice; Pten^L/L mice, 28 days, ATP site inhibitor of mTOR 1 mg/kg daily, RAD001 10 mg/kg daily
  4EBP1 and p70S6K1/2 phosphorylation: completely restored to wild-type levels
Pten^L/L mice; Pten^L/L mice, 60 days of treatment
  progression of invasive prostate cancer locally in the prostate gland: completely blocked
Pten^L/L mice; Pten^L/L mice, draining lymph nodes, 60 days of treatment
  total number and size of distant metastases: profoundly inhibited
Pten^L/L mice; [1]
  apoptosis (cleaved caspase 3): tenfold increase
  proliferation (phospho-histone H3): decreased
Pten^L/L mice; specific epithelial cell types within pre-invasive PIN lesions in Pten^L/L mice
  expression of YB1, vimentin, CD44, and MTA1 at the protein, but not transcript, level: marked decrease
LNCaP and A498 cells
  programmed cell death in multiple cancer cell lines: induced
